Reference: ChEMBL document CHEMBL5584343, “Cerastecin Inhibition of the Lipooligosaccharide Transporter MsbA to Combat Acinetobacter baumannii: From Screening Impurity to In Vivo Efficacy” (J Med Chem, 2024)
Converted amounts (≈) assume the structure as drawn.

Key:
[1] = Inhibition of wildtype Acinetobacter baumannii MsbA preincubated for 30 mins followed by ATP addition and measured after 1 hrs by Transcreener ADP2 F1 assay
Acinetobacter baumannii [2] = experiment: Selectivity ratio of MIC95 for antibacterial activity against Acinetobacter baumannii ATCC19606 in the presence of 10% human serum to MIC95 for antibacterial activity against Acinetobacter baumannii ATCC19606; type: functional
[3] = Cytotoxicity against GFP fused human MT4 cells cultured under serum free condition for 24 hrs by CellTiter-Glo assay; type: toxicity, cell-based; settings: GFP fused MT4 cells
Acinetobacter baumannii [4] = experiment: Antibacterial activity against Acinetobacter baumannii ATCC19606 assessed as bacterial growth inhibition incubated for 18 to 20 hrs by microbroth dilution method; type: functional; settings: time 18-20 hrs
Acinetobacter baumannii [5] = experiment: Antibacterial activity against Acinetobacter baumannii ATCC19606 incubated for 18 to 20 hrs in presence of 10% human serum by microbroth dilution method; type: functional; settings: time 18-20 hrs
Acinetobacter baumannii [6] = experiment: Antibacterial activity against Acinetobacter baumannii CLB21655 assessed as bacterial growth inhibition incubated for 18 to 20 hrs by microbroth dilution method; type: functional; settings: time 18-20 hrs
Acinetobacter baumannii [7] = experiment: Antibacterial activity against Acinetobacter baumannii CLB21655 incubated for 18 to 20 hrs in presence of 50% human serum by microbroth dilution method; type: functional; settings: time 18-20 hrs
Acinetobacter baumannii [8] = experiment: Antibacterial activity against Acinetobacter baumannii CLB21655 incubated for 18 to 20 hrs in presence of 50% mouse serum by microbroth dilution method; type: functional; settings: time 18-20 hrs
Acinetobacter baumannii [9] = experiment: Antibacterial activity against Acinetobacter baumannii CLB21655 incubated for 18 to 20 hrs in presence of 10% mouse serum by microbroth dilution method; type: functional; settings: time 18-20 hrs
[10] = Cmax in male C57BL/6 mouse at 300 mg/kg, sc administered once in a day and measured after 24 hrs by LC-MS/MS analysis; type: ADME, organism-based; settings: in vivo
Acinetobacter baumannii [11] = experiment: Selectivity ratio of MIC95 for antibacterial activity against Acinetobacter baumannii ATCC19606 in the presence of 1% human serum to MIC95 for antibacterial activity against Acinetobacter baumannii ATCC19606; type: functional
[12] = AUC (0 to infinity) in male C57BL/6 mouse at 300 mg/kg, sc administered once in a day and measured after 24 hrs by LC-MS/MS analysis; type: ADME, organism-based; settings: male, C57BL/6, mouse, in vivo
[13] = Cmax in male C57BL/6 mouse at 300 mg/kg, sc administered 3 times a day with 3 hrs interval and measured after 24 hrs by LC-MS/MS analysis; type: ADME, organism-based; settings: in vivo
[14] = AUC (0 to infinity) in male C57BL/6 mouse at 300 mg/kg, sc administered 3 times a day with 3 hrs interval and measured after 24 hrs by LC-MS/MS analysis; type: ADME, organism-based; settings: male, C57BL/6, mouse, in vivo
Acinetobacter baumannii [15] = experiment: Antibacterial activity against Acinetobacter baumannii ATCC19606 incubated for 18 to 20 hrs in presence of 1% of human serum by microbroth dilution method; type: functional; settings: time 18-20 hrs
Acinetobacter baumannii [16] = experiment: Antibacterial activity against Acinetobacter baumannii ATCC 19606 assessed as bacterial growth inhibition incubated overnight by spectrophotometric analysis; type: functional
Acinetobacter baumannii [17] = experiment: (§1) Antibacterial activity against Acinetobacter baumannii CLB21655 infected in female DBA mouse lung infection model assessed as reduction in bacterial burden in lung at 160 mg/kg, sc pre-infected with bacteria for 2 hrs followed by compound administration and measured after 24 hrs in presence of ceftazidime (reference value: 9.7 log10CFU/g); type: functional
Acinetobacter baumannii [18] = experiment: as §1, with “fold change” for “reduction”, “colony forming units” for “bacterial burden”, “relative to control” for “(reference value: 9.7 log10CFU/g)”; type: functional
Acinetobacter baumannii [19] = experiment: (§2) Antibacterial activity against Acinetobacter baumannii CLB21655 infected in female DBA mouse blood stream infection model assessed as fold change in colony forming units in spleen at 200 mg/kg, sc pre-infected with bacteria for 0.5 hrs followed by once daily compound administration and measured after 8 hrs relative to control; type: functional
Acinetobacter baumannii [20] = experiment: as §1, with “300” for “160”, “by thrice daily” for “by”, “administration with 3 hrs interval” for “administration”, “hrs” for “hrs in presence of ceftazidime”; type: functional
Acinetobacter baumannii [21] = experiment: as §1, with “300” for “160”, “by once daily” for “by”, “hrs” for “hrs in presence of ceftazidime”; type: functional
Acinetobacter baumannii [22] = experiment: as §2, with “10” for “200”, “thrice” for “once”; type: functional
Acinetobacter baumannii [23] = experiment: Antibacterial activity against Acinetobacter baumannii ATCC19606 incubated for 18 to 20 hrs in presence of 50% mouse serum by microbroth dilution method; type: functional; settings: time 18-20 hrs
Acinetobacter baumannii [24] = experiment: as §2, with “reduction” for “fold change”, “bacterial burden” for “colony forming units”, “300” for “200”, “(reference value: 6.5 log10CFU/g)” for “relative to control”; type: functional
Acinetobacter baumannii [25] = experiment: as §2, with “100” for “200”; type: functional
Acinetobacter baumannii [26] = experiment: as §2, with “lung” for “blood stream”, “lung” for “spleen”, “300” for “200”, “2” for “0.5”, “24” for “8”; type: functional
Acinetobacter baumannii [27] = experiment: (§3) Antibacterial activity against Acinetobacter baumannii CLB21655 infected in female DBA mouse blood stream infection model assessed as reduction in bacterial burden in spleen at 300 mg/kg, sc pre-infected with bacteria for 0.5 hrs followed by thrice daily compound administration and measured after 8 hrs (reference value: 6.3 log10CFU/g); type: functional
Acinetobacter baumannii [28] = experiment: Antibacterial activity against Acinetobacter baumannii CLB21655 infected in female DBA mouse lung infection model assessed as fold change in colony forming units in lung at 300 mg/kg, sc pre-infected with bacteria for 2 hrs followed by thrice daily compound administration with 3 hrs interval and measured after 24 hrs relative to control; type: functional
Acinetobacter baumannii [29] = experiment: as §3, with “200” for “300”, “once” for “thrice”, “6.5” for “6.3”; type: functional
Acinetobacter baumannii [30] = experiment: as §2, with “300” for “200”; type: functional
[31] = Plasma protein binding in C57BL/6 mouse at 1000 to 100000 ng/ml by equilibrium dialysis based LC-MS/MS analysis; type: ADME, cell-free; settings: dose 1000-100000 ng/ml, read-out: PPB (converted)
Acinetobacter baumannii [32] = experiment: as §3, with “100” for “300”, “once” for “thrice”, “6.5” for “6.3”; type: functional

Structure (SMILES) | EC50 [1] | Selectivity ratio (Acinetobacter baumannii [2]) | EC50 at 24 h [3] | MIC95 (Acinetobacter baumannii [4]) | MIC95 (Acinetobacter baumannii [5]) | also measured
O=C(O)c1cc(CN2CC(Oc3ccc(NS(=O)(=O)c4ccc(-c5ccc(F)cc5)s4)c(C(=O)O)c3)C2)ccc1NS(=O)(=O)c1cnn(-c2ccc(Cl)cc2)c1 | < 10 nM | 64 | 37 µM | 0.049 µM (≈ 0.0411 µg/mL) | 3.12 µM | –
O=C(O)c1cc(CN2CC(Oc3ccc(NS(=O)(=O)c4ccc(-c5ccc(F)cc5)cc4)c(C(=O)O)c3)C2)ccc1NS(=O)(=O)c1cnn(-c2ccc(F)cc2)c1 | 17 nM | 64 | > 42 µM | 0.049 µM (≈ 0.04 µg/mL) | 3.12 µM | –
O=C(O)c1cc(CN[C@H]2C[C@@H](NCc3ccc(NS(=O)(=O)c4cnn(-c5ccc(Cl)cc5)c4)c(C(=O)O)c3)C2)ccc1NS(=O)(=O)c1cnn(-c2ccc(Cl)cc2)c1 | 1290 nM | 16 | > 42 µM | 0.196 µM (≈ 0.17 µg/mL) | 3.12 µM | –
O=C(O)c1cc(CN2CC(Oc3ccc(NS(=O)(=O)c4cnn(-c5ccc(F)cc5)c4)c(C(=O)O)c3)C2)ccc1NS(=O)(=O)CCCCc1ccc(Cl)cc1 | – | – | – | – | – | MIC (Acinetobacter baumannii [6]): 0.078 µM (≈ 0.0634 µg/mL); MIC (Acinetobacter baumannii [7]): 29.7 µM; MIC (Acinetobacter baumannii [8]): 70.7 µM; MIC (Acinetobacter baumannii [9]): 3.12 µM
O=C(CCCOc1ccc(NS(=O)(=O)c2ccc(-c3ccc(C(F)(F)F)cc3)cc2)c(C(=O)O)c1)Nc1ccc(NS(=O)(=O)c2ccc(-c3ccc(C(F)(F)F)cc3)cc2)c(C(=O)O)c1 | < 10 nM | – | 11.2 µM | 0.391 µM (≈ 0.368 µg/mL) | – | Cmax [10]: 370 µM; Selectivity ratio (Acinetobacter baumannii [11]): 8; AUC(0-inf) [12]: 885 µM·h; Cmax [13]: 543 µM; AUC(0-inf) [14]: 3780 µM·h; MIC95 (Acinetobacter baumannii [15]): 3.12 µM
O=C(O)c1cc(CN2CC(COc3ccc(NS(=O)(=O)c4cnn(-c5ccc(Cl)cc5)c4)c(C(=O)O)c3)C2)ccc1NS(=O)(=O)c1cnn(-c2ccc(Cl)cc2)c1 | 581 nM | 32 | > 42 µM | 0.196 µM (≈ 0.167 µg/mL) | 6.25 µM | –
CCCCc1ccc(S(=O)(=O)Nc2ccc(NC(=O)N3CCOCC3)cc2C(=O)O)cc1 | – | – | – | – | – | MIC (Acinetobacter baumannii [16]): ≤ 12.5 µM
O=C(O)c1cc(CN2CC(Oc3ccc(NS(=O)(=O)c4ccc(-c5ccc(F)cc5)s4)c(C(=O)O)c3)C2)ccc1NS(=O)(=O)CCc1ccc(Cl)cc1 | 5.7 nM | 130 | 38.7 µM | 0.024 µM (≈ 0.0192 µg/mL) | 3.12 µM | –
NC(=O)[C@@H]1CC[C@@H]2CN1C(=O)N2OS(=O)(=O)O [AVIBACTAM] | – | – | – | – | – | Activity (Acinetobacter baumannii [17]): 7.6 log10CFU/g; fold change (FC) (Acinetobacter baumannii [18]): 2.1
O=C(CCCOc1ccc(NS(=O)(=O)c2cnn(-c3ccc(F)cc3)c2)c(C(=O)O)c1)Nc1ccc(NS(=O)(=O)c2cnn(-c3ccc(F)cc3)c2)c(C(=O)O)c1 | 50 nM | – | > 42 µM | 0.277 µM (≈ 0.228 µg/mL) | – | fold change (FC) (Acinetobacter baumannii [19]): 0; Selectivity ratio (Acinetobacter baumannii [11]): 7.3; Activity (Acinetobacter baumannii [20]): 8.3 log10CFU/g; Activity (Acinetobacter baumannii [21]): 8.8 log10CFU/g; fold change (FC) (Acinetobacter baumannii [22]): 1.9; MIC95 (Acinetobacter baumannii [23]): 50 µM; Activity (Acinetobacter baumannii [24]): 6.2 log10CFU/g; fold change (FC) (Acinetobacter baumannii [25]): 0.63; MIC95 (Acinetobacter baumannii [15]): 2.03 µM; fold change (FC) (Acinetobacter baumannii [26]): 0.9; Activity (Acinetobacter baumannii [27]): 4.4 log10CFU/g; fold change (FC) (Acinetobacter baumannii [28]): 1.4; Activity (Acinetobacter baumannii [29]): 6.5 log10CFU/g; fold change (FC) (Acinetobacter baumannii [30]): 0.36; fraction unbound [31]: 0.004; Activity (Acinetobacter baumannii [32]): 5.9 log10CFU/g
